We go through 6 compounds from patent publication US20070219231A1, “Quinolonecarboxylic acid compounds, preparation methods and pharmaceutical uses thereof” (priority 2005, published 2007).

Assay in all cases: MIC, two-fold plate dilution method
Holding throughout (type): cell-based

One assay concerns E. coli 26. The settings on record: E. coli 26, Gram-negative; Muener-Hinton medium. An excerpt:
(§1) . The pharmaceutically acceptable salts or hydrates thereof have the same antibacterial activity.
(§2) Two-fold plate dilution method is used for determination of activity, with Muener-Hinton medium (DIFCO) as the culture medium and clinically isolated pathogenic strain, quality control strain and standard strain (provided by National Institute for the Control of Pharmaceutical and Biological Products) as test strains.

The next assay concerns S. aureus ATTC 25923. Further details: unit not given here. The settings on record: S. aureus ATTC 25923, Gram-positive; Muener-Hinton medium.
Source text: as §2

A further assay deals with S. pneumoniae 98. The arrangement: unit not given here. The settings on record: S. pneumoniae 98, Gram-positive; Muener-Hinton medium.
Source text: as §1, §2

Another assay relates to K. pneumoniae 7. The settings on record: K. pneumoniae 7, Gram-negative; Muener-Hinton medium.
Source text: as §1, §2

The test system of the next assay is Enterococcus 755. The settings on record: Enterococcus 755, Gram-positive; Muener-Hinton medium.
Source text: as §1, §2

For a further assay, the system named is K. pneumoniae 14. The arrangement: unit not given here. The settings on record: K. pneumoniae 14, Gram-negative; Muener-Hinton medium.
Source text: as §1, §2

The next assay has as its system S. pneumoniae 70. The arrangement: unit not given here. The settings on record: S. pneumoniae 70, Gram-positive; Muener-Hinton medium.
Source text: as §1, §2

A further assay deals with E. coli ATTC 25922. Further details: unit not given here. The settings on record: E. coli ATTC 25922, Gram-negative; Muener-Hinton medium.
Source text: as §1, §2

With `Nc1c(F)c(N2C[C@@H]3CCCN[C@@H]3C2)c(OC(F)F)c2c1c(=O)c(C(=O)O)cn2C1CC1` (relative stereo) [Embodiment 21, 5-Amino-1-cyclopropyl-8-difluoromethoxyl-7-(cis-2,8-diazabicyclo[4,3,0]nonane-8-yl)-6-fluoro-1,4-dihydro-4-oxoquinoline-3-carboxylic acid], in the assay on E. coli 26, the MIC is less than 0.00 g/mL.
In the case of `Cl.O=C(O)c1cn(C2CC2)c2c(OC(F)F)c(N3C[C@@H]4CCCN[C@@H]4C3)c(F)cc2c1=O` (racemic) [Embodiment 15, 1-Cyclopropyl-8-difluoromethoxyl-7-[cis-2,8-diazabicyclo[4,3,0]nonane-8-yl]-6-fluoro-1,4-dihydro-4-oxoquinoline-3-carboxylic acid hydrochloride], the MIC against S. aureus ATTC 25923 and in the assay with S. pneumoniae 98 was 0.12 throughout.
On to `Cl.Nc1c(F)c(N2C[C@@H]3CCCN[C@@H]3C2)c(OC(F)F)c2c1c(=O)c(C(=O)O)cn2C1CC1` [Embodiment 17, 5-amino-1-cyclopropyl-8-difluoromethoxyl-7-[(1S,6S)-2,8-diazabicyclo[4,3,0]nonane-8-yl]-6-fluoro-1,4-dihydro-4-oxoquinoline-3-carboxylic acid hydrochloride], for which the MIC in the assay with K. pneumoniae 7 came out at 0.01 g/mL; against Enterococcus 755, 0.01 g/mL; in the assay with E. coli 26 it was 0.01 g/mL; against K. pneumoniae 14, 0.01; in the assay on S. pneumoniae 98 it was 0.01; against S. pneumoniae 70, 0.01. Also, in the assay with E. coli ATTC 25922, the MIC was 0.01.
On to `Cl.O=C(O)c1cn(C2CC2)c2c(OC(F)F)c(N3C[C@@H]4CCCN[C@@H]4C3)c(F)cc2c1=O` [Embodiment 13, 1-cyclopropyl-8-difluoromethoxyl-7-[(1S,6S)-2,8-diazabicyclo[4,3,0]nonane-8-yl]-6-fluoro-1,4-dihydro-4-oxoquinoline-3-carboxylic acid hydrochloride], for which the MIC was determined as 0.01 g/mL against K. pneumoniae 7; 0.01 g/mL against E. coli 26; 0.01 in the assay with K. pneumoniae 14; 0.01 against S. pneumoniae 98; 0.12 with S. pneumoniae 70; 0.01 against E. coli ATTC 25922.
Turning to `Cl.O=C(O)c1cn(C2CC2)c2c(OC(F)F)c(N3C[C@H]4CCCN[C@H]4C3)c(F)cc2c1=O` [Embodiment 14, 1-cyclopropyl-8-difluoromethoxyl-7-[(1R,6R)-2,8-diazabicyclo[4,3,0]nonane-8-yl]-6-fluoro-1,4-dihydro-4-oxoquinoline-3-carboxylic acid hydrochloride], the MIC in the assay on S. pneumoniae 98 and in the assay with E. coli ATTC 25922 was 0.01 throughout.
On to `Cl.Nc1c(F)c(N2C[C@H]3CCCN[C@H]3C2)c(OC(F)F)c2c1c(=O)c(C(=O)O)cn2C1CC1` [Embodiment 18, 5-Amino-1-cyclopropyl-8-difluoromethoxyl-7-[(1R,6R)-2,8-diazabicyclo[4,3,0]nonane-8-yl]-6-fluoro-1,4-dihydro-4-oxoquinoline-3-carboxylic acid hydrochloride], for which the MIC in the assay with K. pneumoniae 7 was 0.01 g/mL; in the assay with E. coli 26, 0.01 g/mL; against K. pneumoniae 14, 0.01; in the assay on S. pneumoniae 98, 0.12; in the assay with E. coli ATTC 25922 it was 0.01.
